Measurements published in US20190125790A1, “USE OF HYPOCHLOROUS ACID AS A TOPICAL ANTIMICROBIAL” (BIIOSMART TECHNOLOGIES LLC, priority 2016, published 2019).

Assay: Controlled randomized single blind clinical trial in surgical open wounds
Format: in vivo, human
Protocol: The biocompatibility of the 0.046% HOCl concentration aqueous solution was tested in a three way controlled and randomized single blind clinical trial. Patients were randomized into three groups (60 patients per group). The antiseptic efficacy and biocompatibility of the test solution vs. povidone-iodine vs. chlorhexidine (Chlorhexidine Gluconate—CHG) in surgical—clean and clean contaminated—open wounds was evaluated in 180 patients admitted to the surgical facilities of Erasmo Meoz Hospital in Cucuta, Colombia.

SMILES: [H]/N=C(\N/C(=N/[H])NCCCCCCNC(=N)NC(=N)Nc1ccc(Cl)cc1)Nc1ccc(Cl)cc1 [chlorhexidine, Chlorhexidine Gluconate]
- infected patients (after five days follow-up, 60 patients per group): two
- wound appearance (biocompatibility) (human, in vivo): dried edges and no promising color in wound bed
